Assay results from US10752921B2, “Enzymes and methods for styrene synthesis” (Phytogene, Inc., priority 2012, dated 2020).
Substitutions are numbered along the chain they refer to. Numbers in names are those of the source. Entries after “also recorded” stand apart in the source; their conditions may differ.

T1: FDC1 (Saccharomyces cerevisiae, UniProt Q03034)
T1 construct: N-terminal 6xHis leader of vector pDEST17 (own knowledge of the vector); made in house; host or cells: E. coli BL21 (DE3)
T1 sequence (Q03034 1-503): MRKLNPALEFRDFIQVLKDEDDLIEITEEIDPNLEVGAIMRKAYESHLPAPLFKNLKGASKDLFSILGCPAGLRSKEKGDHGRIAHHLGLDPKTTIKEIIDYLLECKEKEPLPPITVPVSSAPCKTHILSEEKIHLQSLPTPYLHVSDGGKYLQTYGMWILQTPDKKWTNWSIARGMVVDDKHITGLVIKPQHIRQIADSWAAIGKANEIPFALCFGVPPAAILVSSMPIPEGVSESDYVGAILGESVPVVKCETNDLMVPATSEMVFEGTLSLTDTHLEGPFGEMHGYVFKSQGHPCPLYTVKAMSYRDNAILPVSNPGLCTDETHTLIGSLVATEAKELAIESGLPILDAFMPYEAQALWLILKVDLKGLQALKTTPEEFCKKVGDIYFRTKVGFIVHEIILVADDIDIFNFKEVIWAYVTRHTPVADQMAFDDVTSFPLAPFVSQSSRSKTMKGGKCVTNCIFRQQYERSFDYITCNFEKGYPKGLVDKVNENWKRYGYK

B1: K190C (protein, listed as Saccharomyces cerevisiae)
chain: T1 sequence (Q03034 1-503) with K190C
B2: R1751 (protein, listed as Saccharomyces cerevisiae)
chain: T1 sequence (Q03034 1-503) with R175I
B3: K190N (protein, listed as Saccharomyces cerevisiae)
chain: T1 sequence (Q03034 1-503) with K190N
B4: K190D (protein, listed as Saccharomyces cerevisiae)
chain: T1 sequence (Q03034 1-503) with K190D
B5: K190H (protein, listed as Saccharomyces cerevisiae)
chain: T1 sequence (Q03034 1-503) with K190H
B6: K190L (protein, listed as Saccharomyces cerevisiae)
chain: T1 sequence (Q03034 1-503) with K190L
B7: K190V (protein, listed as Saccharomyces cerevisiae)
chain: T1 sequence (Q03034 1-503) with K190V

Each molecule was assayed on styrene production (assay: Fermentation of E. coli with PAL2-FDC fusion with or without srpABC pump, Phe as substrate). Details: control contains only the fusion of PAL2 and FDC.
Type: cell-based
Text: Some bacteria have developed multiple mechanisms to adapt unfavorable conditions. For example, Pseudomonas strains have about three strategies for addressing organic solvent toxicity, i.e. modified membrane structure, active efflux pumps, and enzymatic detoxification. Here, a recombinant E. coli host expressing an efflux pump (called solvent-resistant-pump) was produced. The pump, a member of the ABC-transporter family, is composed of three subunits, srpA, periplasmic linker; srpB, inner membrane transporter; and srpC, out-membrane channels. The full-length of the srpABC pump sequence (˜6 kb) was cloned from the genomic DNA of P. putida. The clone was first inserted to pENTR vector with Zeocin resistance and then to E. coli expression vector pCONA-2-DEST with Kanamycin resistance.
Finally, the pump was transformed to the E. coli strain BL21 (DE3) containing the fusion of PAL2 and FDC which is resistant to Ampicillin. After the test expression of 5 clones in flasks, one clone was chosen for further experiment with fermenter. Fifty milliliters of overnight culture were inoculated in 1.5 L LB medium containing appropriate antibiotics. When cells reach an OD600˜0.8, 5 mM of IPTG was added to the culture for induction. […] Samples from the overnight fermentation (˜16 hrs) were taken and analyzed by HPLC in coupling with an Acclaim RSLC C18 column and detected at 280 nm. […]

Molecule | styrene production with ABC-transporter compared to control without
ABC-transporter: solvent-resistant efflux pump srpABC cloned from P. putida, subunits srpA, srpB, srpC | significantly increased; also recorded: enhanced nearly four times

What follows are molecules tested on styrene production (assay: Styrene production by FDC1 mutants from tCA (colorimetric screening, confirmed by HPLC)). Details: E. coli cells, tCA 1 g/L, 30° C. for 4 hours.
Type: cell-based
Protocol: Saturation mutagenesis allows the change of one amino acid to 19 other alternative amino acid residues. […] The codon NNK has 32-fold degeneracy and encodes all 20 amino acids without rare codons. The QuikChange PCR products were examined by agarose gel electrophoresis and then 15 μl of PCR products were digested with 1 μl Dpnl (New England Biolabs) at 37° C. for 4 hours to remove the template plasmid. Aliquots of (2 μl) digestive products were transformed into BL21-Gold (DE3) competent cells (STRATAgene, CA) and inoculated on Luria-Bertani (LB) agar plates containing kanamycin. The quality of the library by DNA sequencing was confirmed. The library covers 90% of mutagenesis (17 mutants out of 19). To cover 100% (19 out of 19 mutant), we screened 150 mutants for each site.
The transformants (Example II.2) were inoculated in 96-well plates (NUNC, Roskilde, Denmark) containing 100 μl LB broth per well and incubated at 37° C., overnight. The cultures were then mixed with equal amount of 50% glycerol and stored at −80° C. as the master plate. An aliquot of 10 μl culture was inoculated in 2 ml deep-well plates (USA scientific) with 1 ml TB broth per well and incubated at 37° C. until the OD600 reached 1.0. The cultures were then induced by 0.2 mM IPTG and incubated at 18° C. for 20 hours with shaking at 250 rpm.
Cells were harvested and suspended with 0.25 ml PBS buffer at pH 7.0 and the substrate (tCA) was added at a final concentration of 1 g/L. The culture was incubated at 30° C. for 4 hours and the volatile product styrene was collected by using 96 well STRATA-X® reversed phase plate containing 10 mg polymer based resin (Phenomenex) on top of the culture plate (FIG. 19). To avoid styrene vapor diffusion, 96-square well silicone sealing mats with pre-slit were used between 96-well culture plate and 96 well STRATA-X® reversed phase plate. The product was collected by 200 μl propanol for each well and the amount of product was measured by colorimetric method.
Various chemicals were tested as an indicator for styrene detection, including NBP (4-nitrobenzyl-pyridine) as a preferred indicator. Styrene was mixed with cytochrome P450 BM-3 in 50 mM phosphate buffer pH 8.0. The styrene oxidation reaction was started by adding 0.2 mM NADPH, and the reaction mixture was incubated at room temperature for 5 minutes with shaking. The NBP solution was added to the mixture and incubated at room temperature for further 5 minutes with shaking which gives white precipitate. The tube or plate containing reaction mixtures were heated at 70° C. for 30 minutes and chilled on ice for 5 minutes. After adding Dimethylformamide (150 μl) and 25 μl of 1M K2CO3, the reaction mixture gave blue color that can be measured spectrophotometrically at 600 nm immediately. The […] of NBP reacts with the oxirane ring of styrene oxide to yield a blue chromophore a blue color that can be monitored spectrophotometrically at 600 nm.
The mutants showing higher activity were confirmed by HPLC using an ACQUITY UPLC BEH C18 column (1.7-μm, 2.1×50-mm, Waters, USA). The samples were resolved in 30% acetonitrile (A) with an increasing concentration gradient of acetonitrile (B) for 1 min, 95%; then to 1 min, 30%; at a flow rate of 1 ml/min. UV absorption was monitored at 254-, 280-, and 310-nm. The changed amino acid residues in the mutants showing the higher activity were confirmed by DNA sequence.

Molecule | amount of styrene compared to that of wild type (in words) | styrene produced compared to wild type [times]
B1 | significantly higher amount of styrene | 3
B2 | significantly higher amount of styrene | 1.5
B3 | significantly higher amount of styrene | 
B4 | significantly higher amount of styrene | 
B5 | significantly higher amount of styrene | 
B6 | significantly higher amount of styrene | 
B7 | significantly higher amount of styrene | 3

These molecules were tested against T1, FDC1 (assay: Effect of metal ions on FDC1 activity). Details: 10 mM metal ion, 1.4 mM tCA, purified FDC1, 5 minutes at 30° C.
Type: biochemical
Protocol: (§1) After the reaction, 1 mL of propanol was added to the reaction mixtures to solubilize styrene. The experimental control used the same conditions except the reaction mixture contained no metal ions. The experimental negative control used the same conditions except the reaction mixture contained no substrate.
as §1, with “ions or EDT A.” for “ions.”

Molecule | effect of metal ions on FDC1 activity
[Ca+2].[Cl-].[Cl-] [Ca^2+, CaCl2] | increased the activity of FDC1
[Cl][Fe]([Cl])[Cl] [Fe^3+, FeCl3] | increased the activity of FDC1
O=S(=O)([O-])[O-].[Mg+2] [Mg^2+, MgSO4] | increased the activity of FDC1
O=S(=O)([O-])[O-].[Zn+2] [Zn^2+, ZnSO4] | increased the activity of FDC1

These molecules were tested against T1, FDC1 (assay: Substrate specificity of FDC1). Details: 0.2 mM substrate, 0.5 mg purified FDC1, 5 minutes at 30° C., pH 6.5.
Type: biochemical
Protocol: The reaction mixtures were then incubated for 5 minutes at 30° C. After the reaction 1 mL of propanol was added to the reaction mixtures to solubilize styrene. The experimental negative control used the same conditions except the reaction mixture contained no substrate.

Molecule | activity compared with that of tCA (relative activity)
COc1ccc(OC)c(C=CC(=O)O)c1 [2,5-dimethoxycinnamic acid] | did not show any activity
O=C(O)C=Cc1ccccc1O [2-hydroxycinnamic acid] | did not show any activity
Cc1ccccc1C=CC(=O)O [2-methylcinnamic acid] | 35%
COc1ccc(C=CC(=O)O)cc1OC [3,4-dimethoxycinnamic acid] | did not show any activity
O=C(O)C=Cc1cccc(O)c1 [3-hydroxycinnamic acid] | did not show any activity
O=C(O)C=Cc1ccc(O)cc1 [4-hydroxycinnamic acid] | 68%
COc1cc(/C=C/C(=O)O)ccc1O [ferulic acid] | 57%
O=C(O)/C=C/c1ccccc1 [t-cinnamic acid, trans-cinnamic acid] | 100%
